Results on two compounds are retold here after patent US20120270864A1, “2-QUINOLINONE AND 2-QUINOXALINONE-DERIVATIVES AND THEIR USE AS ANTIBACTERIAL AGENTS” (ASTRAZENECA AB, priority 2006, published 2012).

The structures appear in SMILES notation. Converted amounts (≈) assume the structure as drawn.

Usually inhibition stands for how much of the control response was suppressed. Higher therefore signals a response far below the control. As a reminder, the MIC is the smallest concentration in the dilution series that meets the test's criterion for growth inhibition.

Assay type in all cases: cell-based
Test [1] relates to Staphylococcus aureus (Sau) 516 cells. Put plainly: Bacterial Susceptibility Testing Methods 2 (microbroth dilution, growth inhibition). To be noted: Staphylococcus aureus. An excerpt: Compounds may be tested for antimicrobial activity by susceptibility testing using microbroth dilution methods recommended by CSLI. Compounds may be dissolved in dimethylsulfoxide and tested in 10 doubling dilutions in the susceptibility assays such that the final dimethylsulfoxide concentration in the assay is 2% (v/v). The Staphylococcus aureus (Sau) 516 cells used in the assay may be grown overnight on appropriate agar media and then suspended in the NCCLS-recommended liquid susceptibility-testing media. […] Plates may be incubated under appropriate conditions of atmosphere and temperature and for times according to NCCLS standard methods prior to being read. As used in Table 1 below, the term “inhibition” refers to the percentage of Staphylococcus aureus 516 cell growth that is suppressed (compared to an untreated sample) by the compound of the indicated example number. When tested in the above in-vitro assay, the compounds and salts of the example numbers listed below were tested at the indicated concentrations, providing the indicated inhibitions. In most instances, the highest concentrations at which the compounds were tested was 8 μg/mL. In some instances, however, compounds were tested at concentrations higher than 8 μg/mL, typically when the concentration was first measured in μM and was subsequently converted to μg/mL. In those cases in which compounds were tested at more than one concentration higher than 8 μg/mL, the concentration closest to 8 μg/mL is provided below.
(Dilution methods test growth across graded concentrations, often in twofold steps.)

Test [2] relates to Escherichia coli. Nature of the test: Bacterial Susceptibility Testing Methods 1 (MIC in liquid media, 96 well format). To be noted: lowest drug concentration able to reduce growth by 80% or more, 37° C., 24 hours, read-out: MIC against Escherichia coli.
The test system of test [3] is Staphylococcus aureus. Described as above. The following applies: lowest drug concentration able to reduce growth by 80% or more, 37° C., 24 hours, read-out: MIC against Staphylococcus aureus. An excerpt: Compounds may be tested for antimicrobial activity by susceptibility testing in liquid media in a 96 well format. Compounds may be dissolved in dimethylsulfoxide and tested in 10 doubling dilutions in the susceptibility assays. The organisms used in the assay may be grown overnight on suitable agar media and then suspended in a liquid medium appropriate for the growth of the organism. The suspension may be adjusted to be equal to a 0.5 McFarland and a further 1 in 10 dilution may be made into the same liquid medium to prepare the final organism suspension in 100 μL. Plates may be incubated under appropriate conditions at 37° C. for 24 hours prior to reading. The Minimum Inhibitory Concentration (MIC) was determined as the lowest drug concentration able to reduce growth by 80% or more.
Compounds were evaluated against a panel of Gram-positive species, including Staphylococcus aureus, Streptococcus pneumoniae, Streptococcus pyogenes, and Enterococcus faecium. In addition, compounds were evaluated against a panel of Gram-negative species including Haemophilus influenzae, Escherichia coli and Moraxella catarrhalis.

As for `N#Cc1ccc2ccc(=O)n(CCN3CC[C@H](NCc4ccc5c(n4)NC(=O)CO5)[C@H](O)C3)c2c1` [Example 2, 1-[2-((3R,4S)-3-Hydroxy-4-{[(3-oxo-3,4-dihydro-2H-pyrido[3,2-b][1,4]oxazin-6-yl)methyl]amino}piperidin-1-yl)ethyl]-2-oxo-1,2-dihydro quino line-7-carbonitrile], the inhibition at 8 µg/mL in test [1] (Tested Concentration 8 μg/mL, Staphylococcus aureus 516 cell growth suppressed compared to untreated sample) worked out at 100%. Besides, the minimal inhibitory concentration (MIC) is 0.5 µg/mL (≈ 1.05 µM) in test [2] and 0.25 µg/mL (≈ 0.527 µM) in test [3].
For the compound `N#Cc1ccc2ccc(=O)n(CCN3CC[C@H](NCc4ccc5c(n4)NC(=O)CO5)[C@H](F)C3)c2c1` [Example 52, 1-[2-((3R,4S)-3-fluoro-4-{[(3-oxo-3,4-dihydro-2H-pyrido[3,2-b][1,4]oxazin-6-yl)methyl]amino}piperidin-1-yl)ethyl]-2-oxo-1,2-dihydroquinoline-7-carbonitrile], testing at 13 µg/mL in test [1] (Tested Concentration 13 μg/mL, Staphylococcus aureus 516 cell growth) gave an inhibition of 100%.
